Laboratory results from patent publication US6358885B1, “Substituted phenylheterocyclic herbicides” (Mississippi State University, priority 1992, dated 2002).

Key:
wheat [1] = test: Test C preemergence/postemergence greenhouse plant response rating 0 to 100; assay type: in vivo, Triticum aestivum; settings: for Plant response rating, Wheat: 0 to 100 scale
Summary of the method: (§1)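 Compounds in non-phytotoxic solvent went onto sandy loam before emergence (seeded one day earlier) or onto plants at the one-to-four leaf stage. Duck salad was treated via flood water (~2.5 cm, maintained) over silt loam.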

pigweed = test: as above; assay type: in vivo, Amaranthusretroflexus; settings: for Plant response rating Pigweed: 0 to 100 scale
Summary of the method: as §1

velvetleaf = test: as above; assay type: in vivo, Abutilon theophrasti; settings: for Plant response rating, Velvetleaf: 0 to 100 scale
Summary of the method: as §1

sugar beet = test: Test B preemergence/postemergence greenhouse plant response rating 0 to 10; assay type: in vivo, Beta vulgaris; settings: 0 to 10 scale
Summary of the method: (§2)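 Planted seeds are treated preemergence with compound dissolved in a non-phytotoxic solvent, while postemergence applications go onto plants of two to eighteen cm. Plants stay in the greenhouse twelve to sixteen days and are then rated visually relative to controls.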

cotton = test: as above; assay type: in vivo, Gossypium hirsutum; settings: for Plant response rating, Cotton: 0 to 10 scale
Summary of the method: as §2

wild buckwheat = test: Test C preemergence/postemergence greenhouse plant response rating 0 to 100; assay type: in vivo, Polygonum convolvulus; settings: for Plant response rating, Wild buckwheat: 0 to 100 scale
Summary of the method: as §1

wheat [2] = test: Test B preemergence/postemergence greenhouse plant response rating 0 to 10; assay type: in vivo, Triticum aestivum; settings: 0 to 10 scale
Summary of the method: as §2

corn = test: as above; assay type: in vivo, Zea mays; settings: for Plant response rating, Corn: 0 to 10 scale
Summary of the method: as §2

Structure (SMILES): C#CCOc1cc(-c2nn3c(c2Br)CCCC3)c(F)cc1Cl [Compound 26]
- Plant response rating, Wheat (wheat [1]; POSTEMERGENCE, 62 g/ha): 40
- Plant response rating, Wheat (wheat [1]; POSTEMERGENCE, 250 g/ha): 60
- Plant response rating (0 to 100), Wheat (wheat [1]; POSTEMERGENCE, Rate 4 g/ha): 20
- Plant response rating, Wheat (wheat [1]; PREEMERGENCE, 250 g/ha): 10
- Plant response rating (0 to 100), Wheat (wheat [1]; PREEMERGENCE, Rate 4 g/ha): 0
- Plant response rating (0 to 100), Wheat (wheat [1]; Rate 16 g/ha, POSTEMERGENCE): 20
- Plant response rating (0 to 100), Wheat (wheat [1]; Rate 16 g/ha, PREEMERGENCE): 0
- Plant response rating Pigweed (pigweed; POSTEMERGENCE, 62 g/ha): 100
- Plant response rating Pigweed (pigweed; POSTEMERGENCE, 250 g/ha): 100
- Plant response rating (0 to 100), Pigweed (pigweed; POSTEMERGENCE, Rate 4 g/ha): 100
- Plant response rating Pigweed (pigweed; PREEMERGENCE, 62 g/ha): 100
- Plant response rating Pigweed (pigweed; PREEMERGENCE, 250 g/ha): 100
- Plant response rating (0 to 100), Pigweed (pigweed; PREEMERGENCE, Rate 4 g/ha): 30
- Plant response rating (0 to 100), Pigweed (pigweed; Rate 16 g/ha, POSTEMERGENCE): 100
- Plant response rating (0 to 100), Pigweed (pigweed; Rate 16 g/ha, PREEMERGENCE): 100
- Plant response rating, Velvetleaf (velvetleaf; POSTEMERGENCE, 62 g/ha): 100
- Plant response rating, Velvetleaf (velvetleaf; POSTEMERGENCE, 250 g/ha): 100
- Plant response rating (0 to 100), Velvetleaf (velvetleaf; POSTEMERGENCE, Rate 4 g/ha): 90
- Plant response rating, Velvetleaf (velvetleaf; PREEMERGENCE, 250 g/ha): 100
- Plant response rating (0 to 100), Velvetleaf (velvetleaf; PREEMERGENCE, Rate 4 g/ha): 50
- Plant response rating (0 to 100), Velvetleaf (velvetleaf; Rate 16 g/ha, POSTEMERGENCE): 100
- Plant response rating (0 to 100), Velvetleaf (velvetleaf; Rate 16 g/ha, PREEMERGENCE): 90
- Plant response rating, Sugar beet (sugar beet; POSTEMERGENCE, Rate 50 g/ha): 10
- Plant response rating, Sugar beet (sugar beet; POSTEMERGENCE, Rate 200 g/ha): 10
- Plant response rating, Sugar beet (sugar beet; PREEMERGENCE, Rate 50 g/ha): 9
- Plant response rating, Sugar beet (sugar beet; Rate 200 g/ha, PREEMERGENCE): 10
- Plant response rating (0 to 10 scale), Cotton (cotton; POSTEMERGENCE, Rate 50 g/ha): 10
- Plant response rating, Cotton (cotton; POSTEMERGENCE, Rate 200 g/ha): 10
- Plant response rating, Cotton (cotton; PREEMERGENCE, Rate 50 g/ha): 3
- Plant response rating, Cotton (cotton; Rate 200 g/ha, PREEMERGENCE): 9
- Plant response rating, Wild buckwheat (wild buckwheat; POSTEMERGENCE, 62 g/ha): 100
- Plant response rating, Wild buckwheat (wild buckwheat; POSTEMERGENCE, 250 g/ha): 100
- Plant response rating (0 to 100), Wild buckwheat (wild buckwheat; POSTEMERGENCE, Rate 4 g/ha): 50
- Plant response rating, Wild buckwheat (wild buckwheat; PREEMERGENCE, 250 g/ha): 100
- Plant response rating (0 to 100), Wild buckwheat (wild buckwheat; PREEMERGENCE, Rate 4 g/ha): 20
- Plant response rating (0 to 100), Wild buckwheat (wild buckwheat; Rate 16 g/ha, POSTEMERGENCE): 80
- Plant response rating (0 to 100), Wild buckwheat (wild buckwheat; Rate 16 g/ha, PREEMERGENCE): 80
- Plant response rating, Wheat (wheat [2]; POSTEMERGENCE, Rate 50 g/ha): 4
- Plant response rating, Wheat (wheat [2]; POSTEMERGENCE, Rate 200 g/ha): 5
- Plant response rating, Wheat (wheat [2]; PREEMERGENCE, Rate 50 g/ha): 1
- Plant response rating, Wheat (wheat [2]; Rate 200 g/ha, PREEMERGENCE): 2
- Plant response rating (0 to 10 scale), Corn (corn; POSTEMERGENCE, Rate 50 g/ha): 5
- Plant response rating, Corn (corn; POSTEMERGENCE, Rate 200 g/ha): 5
- Plant response rating, Corn (corn; PREEMERGENCE, Rate 50 g/ha): 4
- Plant response rating, Corn (corn; Rate 200 g/ha, PREEMERGENCE): 6
